Data on 5 molecules can be found in patent publication US5413990A, “N-terminus modified analogs of LHRH” (Tap Pharmaceuticals Inc., priority 1993, dated 1995).

Square brackets hold non-standard residues; d marks the D form. Peptide text beside a SMILES is read from it. * marks the point of attachment. dPhe(4-Cl) = N[C@H](Cc1ccc(Cl)cc1)C(=O)O; d2Nal = N[C@H](Cc1ccc2ccccc2c1)C(=O)O; Lys(iPr) = CC(C)NCCCC[C@H](N)C(=O)O; NMeY = CN[C@@H](Cc1ccc(O)cc1)C(=O)O; Cyclopropanecarbonyl = O=C(C1CC1)*; dCit = NC(=O)NCCC[C@@H](N)C(=O)O; d3Pal = N[C@H](Cc1cccnc1)C(=O)O; Nicotinoyl = O=C(c1cccnc1)*; Methoxyacetyl = COCC(=O)*; PhAc = O=C(Cc1ccccc1)*; Propionyl = CCC(=O)*; Butyryl = CCCC(=O)*

For the test, the target named is T1, LHRH (Rattus norvegicus, UniProt P30969).
T1 construct: evaluated in an in vitro test for LHRH antagonist potency (pA2); endogenous in cells; host or cells: pituitary cells (rat, from my own knowledge of the cited method)
T1 sequence (P30969 1-327): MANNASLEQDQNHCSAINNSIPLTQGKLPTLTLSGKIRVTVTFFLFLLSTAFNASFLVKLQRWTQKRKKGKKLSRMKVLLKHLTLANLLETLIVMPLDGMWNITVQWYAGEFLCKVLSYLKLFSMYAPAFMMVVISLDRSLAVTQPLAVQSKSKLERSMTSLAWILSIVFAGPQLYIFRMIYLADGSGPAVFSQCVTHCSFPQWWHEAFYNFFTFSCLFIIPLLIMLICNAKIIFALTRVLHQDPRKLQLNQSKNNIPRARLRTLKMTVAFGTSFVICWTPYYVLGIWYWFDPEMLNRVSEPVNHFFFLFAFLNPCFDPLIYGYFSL
Nature of the test: in vitro test for LHRH antagonist potency (pA2). Format: cell-based. As to conditions: negative logarithm of the antagonist concentration required to shift the response curve produced by the agonist leuprolide to two-fold higher concentration. As to the method: Representative compounds of the present invention were evaluated in an in vitro test for LHRH antagonist potency (pA2). The test employed the method detailed in F. Haviv, et al. J. Med. Chem., 32:2340-2344 (1989). The values of pA2 are the negative logarithms of the concentration of the particular antagonist test compound required to shift the response curve produced by the agonist leuprolide to two-fold higher concentration. (Leuprolide is the LHRH agonist having the structure 5-oxo-Pro^1 -His^2 -Trp^3 -Ser^4 -Tyr^5 -D-Leu^6 -Leu^7 -Arg^8 -Pro^9 -NHEt and is disclosed and claimed in U.S. Pat. No. 4,005,063.) Typically pA2 values of 9.5 or greater are indicative of good LHRH antagonist potency, with values of 10.0 or greater being preferred.
As for `CCCC(=O)N[C@H](Cc1ccc2ccccc2c1)C(=O)N[C@H](Cc1ccc(Cl)cc1)C(=O)N[C@H](Cc1cccnc1)C(=O)N[C@@H](CO)C(=O)N(C)[C@@H](Cc1ccc(O)cc1)C(=O)N[C@H](CCCCNC(=O)c1cccnc1)C(=O)N[C@@H](CC(C)C)C(=O)N[C@@H](CCCCNC(C)C)C(=O)N1CCC[C@H]1C(=O)N[C@H](C)C(N)=O` [Example 2b, N-Butyryl-D2Nal-D4ClPhe-D3Pal-Ser-NMeTyr-DLys(N-epsilon-Nicotinyl)-Leu-Lys(N-epsilon-Isopropyl)-Pro-DAlaNH 2] (Butyryl-[d2Nal][dPhe(4-Cl)][d3Pal]S[NMeY][dK](Nicotinoyl)L[Lys(iPr)]P[dA]-NH2), the antagonist dissociation constant (Kb) is 8.91 pM.
Next, `CCC(=O)N[C@H](Cc1ccc2ccccc2c1)C(=O)N[C@H](Cc1ccc(Cl)cc1)C(=O)N[C@H](Cc1cccnc1)C(=O)N[C@@H](CO)C(=O)N(C)[C@@H](Cc1ccc(O)cc1)C(=O)N[C@H](CCCNC(N)=O)C(=O)N[C@@H](CC(C)C)C(=O)N[C@@H](CCCNC(=N)N)C(=O)N1CCC[C@H]1C(=O)N[C@H](C)C(N)=O` [Example 5b, N-Propionyl-D2Nal-D4ClPhe-D3Pal-Ser-NMeTyr-DCit-Leu-Arg-Pro-DAlaNH2] (Propionyl-[d2Nal][dPhe(4-Cl)][d3Pal]S[NMeY][dCit]LRP[dA]-NH2): 3.47 pM; `COCC(=O)N[C@H](Cc1ccc2ccccc2c1)C(=O)N[C@H](Cc1ccc(Cl)cc1)C(=O)N[C@H](Cc1cccnc1)C(=O)N[C@@H](CO)C(=O)N(C)[C@@H](Cc1ccc(O)cc1)C(=O)N[C@H](CCCCNC(=O)c1cccnc1)C(=O)N[C@@H](CC(C)C)C(=O)N[C@@H](CCCCNC(C)C)C(=O)N1CCC[C@H]1C(=O)N[C@H](C)C(N)=O` [Example 2d, N-Methoxyacetyl-D2Nal-D4ClPhe-D3Pal-Ser-NMeTyr-DLys(N-epsilon-Nicotinyl)-Leu-Lys(N-epsilon-Isopropyl)-Pro-DAlaNH 2] (Methoxyacetyl-[d2Nal][dPhe(4-Cl)][d3Pal]S[NMeY][dK](Nicotinoyl)L[Lys(iPr)]P[dA]-NH2): 7.24 pM; `CC(C)C[C@H](NC(=O)[C@@H](CCCCNC(=O)c1cccnc1)NC(=O)[C@H](Cc1ccc(O)cc1)N(C)C(=O)[C@H](CO)NC(=O)[C@@H](Cc1cccnc1)NC(=O)[C@@H](Cc1ccc(Cl)cc1)NC(=O)[C@@H](Cc1ccc2ccccc2c1)NC(=O)Cc1ccccc1)C(=O)N[C@@H](CCCCNC(C)C)C(=O)N1CCC[C@H]1C(=O)N[C@H](C)C(N)=O` [Example 2k, N-Phenylacetyl-D2Nal-D4ClPhe-D3Pal-Ser-NMeTyr-DLys(N-epsilon-Nicotinyl)-Leu-Lys(N-epsilon-Isopropyl)-Pro-DAlaNH2] (PhAc-[d2Nal][dPhe(4-Cl)][d3Pal]S[NMeY][dK](Nicotinoyl)L[Lys(iPr)]P[dA]-NH2): 14.1 pM.
In the case of `CC(C)C[C@H](NC(=O)[C@@H](CCCCNC(=O)c1cccnc1)NC(=O)[C@H](Cc1ccc(O)cc1)N(C)C(=O)[C@H](CO)NC(=O)[C@@H](Cc1cccnc1)NC(=O)[C@@H](Cc1ccc(Cl)cc1)NC(=O)[C@@H](Cc1ccc2ccccc2c1)NC(=O)C1CC1)C(=O)N[C@@H](CCCCNC(C)C)C(=O)N1CCC[C@H]1C(=O)N[C@H](C)C(N)=O` [Example 2f, N-Cyclopropylcarbonyl-D2Nal-D4ClPhe- D3Pal-Ser-NMeTyr-DLys(N-epsilon-Nicotinyl)-Leu-Lys(N-epsilon-Isopropyl)-Pro-DAlaNH 2] (Cyclopropanecarbonyl-[d2Nal][dPhe(4-Cl)][d3Pal]S[NMeY][dK](Nicotinoyl)L[Lys(iPr)]P[dA]-NH2) it was 3.55 pM.

In general, Kb refers to the affinity of an antagonist, worked out from how it opposes an agonist.
